What was measured:
[1] = molecular target: T1, adenosine deaminase of type VII (mucous membrane of intestinal tract of calf) (Bos taurus, UniProt P56658); experiment: Adenosine deaminase inhibiting action; assay type: biochemical; settings: 25° C., 0.05M phosphate buffer pH 7.5, adenosine substrate, 5 minutes, Lineweaver-Burk plots
T1 construct: from tissue; host or cells: mucous membrane of intestinal tract of calf
T1 sequence (P56658 1-363): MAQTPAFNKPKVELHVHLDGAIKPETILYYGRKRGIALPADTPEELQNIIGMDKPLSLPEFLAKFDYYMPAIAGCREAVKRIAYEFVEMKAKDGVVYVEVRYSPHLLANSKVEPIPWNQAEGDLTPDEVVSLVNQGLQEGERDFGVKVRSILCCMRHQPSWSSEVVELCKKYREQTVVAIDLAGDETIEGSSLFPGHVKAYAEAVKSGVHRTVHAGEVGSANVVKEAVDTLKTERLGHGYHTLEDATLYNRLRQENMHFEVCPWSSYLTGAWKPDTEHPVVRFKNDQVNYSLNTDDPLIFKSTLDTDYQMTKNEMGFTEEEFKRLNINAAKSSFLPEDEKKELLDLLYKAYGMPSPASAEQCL
Description: 1. Adenosine Deaminase Inhibiting Action
The enzymatic reaction was conducted at 25° C. in a 0.05M phosphate buffer (pH=7.5). Thus, a reaction solution comprising 800 μl of substrate solution (adenosine), 100 μl of a solution to be tested and 100 μl of enzyme solution (adenosine deaminase of type VII; mucous membrane of intestinal tract of calf) was reacted for 5 minutes and the reaction was stopped by adding 100 μl of acetic acid. Then the amount of inosine produced was determined by means of an HPLC to measure the inhibiting activity. The test was conducted for various substrate concentrations and Ki values were measured by Lineweaver-Burk plots.

[2] = test system: Human peripheral polymorphonuclear leukocyte (PML); experiment: Inhibitory action against activated oxygen (superoxide) generation; assay type: cell-based; settings: FMLP 10^-7 M; for inhibition at 100 µM: 1 × 10^-4 M; for inhibition at 10 µM: 1 × 10^-5 M; for inhibition at 1 µM: 1 × 10^-6 M
Description: 3. Inhibitory Action against Activated Oxygen Generation
Human peripheral polymorphonuclear leukocyte (PML, 2×10^6 cells) prepared in a conventional method, bovine heart cytochrome C type-III (75 nmol), cytocharasin (5 μg) and tested drug were mixed with HEPES-buffered saline solution (final 1 ml) and incubated for 5 minutes at 37° C. N-Formyl-methionyl-leucyl-phenylalanine (FMLP) was added (final 10^-7 M) and incubated for 5 minutes. Immediately after the incubation, the reaction mixture was centrifuged at 4° C., and then the absorbance at 550 nm of the supernatant was measured with a spectrophotometer.
An excess amount of bovine liver superoxide dismutase (SOD) was added to the reaction mixture and the absorbance of the supernatant was also measured in the same manner as above as a blank value.
A portion of adenosine deaminase (ADA) may be removed during the preparation of human peripheral PML. Therefore, the inhibitory action against the generation of superoxide of the tested drug was measured in the same manner as mentioned above, adding 0.02 units of bovine liver ADA with human peripheral PML.
The inhibition against superoxide generation was calculated by the following equation, and examples of the results are given in Table 4. [formula]

[3] = test system: ischemic edema of hind paw of mice; experiment: Suppressive action against ischemic edema; assay type: in vivo, ICR-strain male mice
Description: 4. Suppressive Action against Ischemic Edema
The right hind paw of ICR-strain male mice (11 weeks of age) were fastened with a rubber band to stop the blood stream for 20 minutes, and then the rubber band was removed to recover the blood stream. The tested drug was administered intravenously before the treatment. Each of the right and left hind paws were weighed and the suppressive action was measured according to the weight difference between the treated and untreated paws.

[4] = test system: rats administered with puromycin aminonucleoside (nephritis model); experiment: Therapeutic action to nephritis (puromycin aminonucleoside rats); assay type: in vivo, male rat (SD strain); settings: 50 mg/kg oral, five consecutive days
Description: 2. Therapeutic Action to Nephritis.
When puromycin aminonucleoside is administered to rats, symptoms similar to protein-rich urine, hypoproteinemia, hyperlipemia, nephrotic syndrome, etc, result and, therefore, rats which are administered with puromycin aminonucleoside have been used as pathological model animals for nephritis. The chemical name for puromycin aminonucleoside is 3'-amino-3'-deoxy-N,N-dimethyladenosine. A method by Endo, et al. [Sogo Rinsho, vol. 38, no. 5, page 821 (1989)] was somewhat modified and used as a test method here. Thus, a solution of puromycin aminonucleoside was dissolved in a physiological saline liquid and administered just once to a tail vein of a male rat (SD strain) of about 200 g body weight at a dose of 100 mg/kg (the initial of zero-th day).
The compound to be tested was dissolved in a physiological saline liquid and was given orally for five consecutive days from the zero-th day at a dose of 50 mg/kg each. After 24 hours, the accumulated urine was collected and the amount of urine and the amount of protein in the urine was measured. Blood was collected on the tenth day and the total protein in serum, creatinine in serum and urea nitrogen were measured.
Examples of the results are given in Tables 2 and where the control is those animals injected only with the puromycin aminonucleoside: […]

[5] = with ADA (0.02 units bovine liver)

Ki [1]: 859 nM
Structure (SMILES): CNc1nc(C)nc2c1ncn2[C@@H]1O[C@H](CO)[C@@H](O)[C@H]1OC [Compound 27, 2, N^6,2'-O-Trimethyladenosine]
inhibition at 100 µM [2, 5]: 88%
inhibition at 10 µM [2, 5]: 77%
inhibition at 1 µM [2, 5]: 34%
inhibition at 0.1 µM ([2]; with ADA (0.02 units bovine liver), 1 × 10^-7 M): 10%
inhibition at 1000 µM ([2]; without ADA, 1 × 10^-3 M): 100%
inhibition at 100 µM ([2]; without ADA): 79%
inhibition at 10 µM ([2]; without ADA): 22%
inhibition at 1 µM ([2]; without ADA): 2%
Paw Weight, Treated ([3]; 10 mg/kg intravenous before ischemia, treated paw): 254.4 ± 6.6 mg
Inhibition (of ischemic edema) ([3]; 10 mg/kg intravenous, from weight difference between treated and untreated paws): 67.7%
Serum Creatinine ([4]; blood on tenth day): 0.71 mg/dL
Total Protein in Serum ([4]; blood on tenth day): 7.44 g/dL
Urea Nitrogen ([4]; blood on tenth day): 31.9 mg/dL
Amount of Protein in Urine ([4]; 1st day): 0 mg/day
Amount of Protein in Urine ([4]; 2nd day): 29.2 mg/day
Amount of Protein in Urine ([4]; 3rd day): 33.8 mg/day
Amount of Protein in Urine ([4]; 4th day): 122.5 mg/day
Amount of Protein in Urine ([4]; 5th day): 399.8 mg/day
Amount of Protein in Urine ([4]; 6th day): 443.7 mg/day
Amount of Protein in Urine ([4]; 7th day): 558.7 mg/day
Amount of Protein in Urine ([4]; 8th day): 595.6 mg/day
Amount of Protein in Urine ([4]; 9th day): 593.5 mg/day
Amount of Protein in Urine ([4]; 10th day): 528.6 mg/day

From patent US5705491A, “Adenosine deaminase inhibitor” (Nippon Zoki Pharmaceutical Co., Ltd., priority 1992, dated 1998)
